Among the data in ChEMBL document CHEMBL3351271, “Design, synthesis and biological evaluation of novel potent MDM2/p53 small-molecule inhibitors” (Bioorg Med Chem Lett, 2015) are IC50, CC50 and Ki values, retold here.

Assay [1] concerns SiHa. In words: Cytotoxicity against human SiHa cells after 48 hrs by MTT assay. Format: functional, cell-based.
Assay [2] deals with MCF7. In words: Cytotoxicity against human MCF7 cells after 48 hrs by MTT assay. The note with it: MCF7, 48 h. Format: functional, cell-based.
Assay [3] is described as follows: Cytotoxicity against p53 expressing human HCT116 cells after 48 hrs by MTT assay. It is filed as functional, cell-based. The following applies: HCT-116, 48 h.
Assay [4] can be described thus: Cytotoxicity against p53 deficient human HCT116 cells after 48 hrs by MTT assay. It is filed as functional, cell-based. The note with it: HCT-116, 48 h.
For assay [5], the system named is HEK293. In words: Cytotoxicity against HEK293 cells after 48 hrs by MTT assay. It is filed as cell-based. The following applies: Homo sapiens, HEK293, 48 h.
In assay [6] the test system is HepG2. In words: Cytotoxicity against human HepG2 cells after 48 hrs by MTT assay. It is filed as functional, cell-based. The following applies: HepG2, 48 h.
In assay [7] the test system is MCF7. In words: Cytotoxicity against human MCF7 cells after 120 hrs by MTT assay. It is filed as functional. The note with it: MCF7, 120 h.
Assay [8] concerns the target Tumour suppressor p53/oncoprotein Mdm2 (Homo sapiens, UniProt Q00987). In words: Inhibition of MDM2/P53 (unknown origin) protein interaction by fluorescent polarization assay.
Setting [9] is: Homo sapiens, SiHa, 48 h, read-out: IC50.

Each structure is given as a SMILES string. A value given as a limit tells only on which side of the number the result lay.

Tumour suppressor p53/oncoprotein Mdm2, sequence (P04637 whole entry): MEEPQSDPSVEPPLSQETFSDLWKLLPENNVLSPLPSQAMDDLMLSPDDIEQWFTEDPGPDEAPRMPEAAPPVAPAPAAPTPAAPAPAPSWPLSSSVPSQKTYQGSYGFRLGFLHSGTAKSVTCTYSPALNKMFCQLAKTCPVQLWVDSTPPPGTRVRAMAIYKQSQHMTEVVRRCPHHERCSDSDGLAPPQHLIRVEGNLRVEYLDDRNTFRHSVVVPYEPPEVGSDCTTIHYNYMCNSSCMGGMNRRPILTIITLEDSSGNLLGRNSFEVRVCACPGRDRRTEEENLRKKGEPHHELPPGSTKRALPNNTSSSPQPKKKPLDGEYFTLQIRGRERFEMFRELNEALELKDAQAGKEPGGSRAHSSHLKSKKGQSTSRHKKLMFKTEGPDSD
Tumour suppressor p53/oncoprotein Mdm2, sequence (Q00987 whole entry): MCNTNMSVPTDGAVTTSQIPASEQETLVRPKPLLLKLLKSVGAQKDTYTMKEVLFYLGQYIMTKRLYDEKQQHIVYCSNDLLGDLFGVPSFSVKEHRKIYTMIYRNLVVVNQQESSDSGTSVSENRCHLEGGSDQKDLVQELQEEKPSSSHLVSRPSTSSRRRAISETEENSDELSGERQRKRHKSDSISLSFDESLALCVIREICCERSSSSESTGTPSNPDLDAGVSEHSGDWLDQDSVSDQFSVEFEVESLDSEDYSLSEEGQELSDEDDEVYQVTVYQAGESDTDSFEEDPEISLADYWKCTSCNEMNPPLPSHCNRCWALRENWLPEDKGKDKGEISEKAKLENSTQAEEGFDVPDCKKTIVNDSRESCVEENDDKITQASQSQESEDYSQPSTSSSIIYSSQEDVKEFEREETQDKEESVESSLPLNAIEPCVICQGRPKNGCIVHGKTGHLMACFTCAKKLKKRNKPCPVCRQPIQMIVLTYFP

As for `CC(C)Oc1ccc(C2CN(C)[C@]3(C(=O)Nc4ccccc43)[C@]23NC(=S)N(c2ccc(F)c(Cl)c2)C3=O)cc1` (stereo partly specified), the IC50 result in assay [1] (siha) is “Not Active”; in assay [2], 20.2 µM; in assay [3], 8.55 µM; in assay [4] it was 7.4 µM; in assay [5], 13.5 µM; in assay [6] it was 49.9 µM.
Turning to `CN1CC(c2ccc(Cl)cc2)[C@@]2(NC(=S)N(c3ccc(F)c(Cl)c3)C2=O)[C@@]12C(=O)Nc1ccccc12` (stereo partly specified), the IC50 was 7.65 µM in assay [1] (setting [9]); 4.88 µM in assay [2]; 7.78 µM in assay [3]; 7.33 µM in assay [4]; 5.68 µM in assay [5]; 9.08 µM in assay [6].
On to `CC(C)Oc1ccc(C2CN(C)[C@]3(C(=O)Nc4ccc(Br)cc43)[C@]23NC(=S)N(c2ccc(F)c(Cl)c2)C3=O)cc1` (stereo partly specified), for which the IC50 entry is “Not Active” in assay [1] (siha); 34.9 µM in assay [2]; 38.8 µM in assay [3]; 19.4 µM in assay [4]; 15.8 µM in assay [5]; 34.6 µM in assay [6].
For the compound `CCOc1ccc(N2C(=O)[C@@]3(NC2=S)C(c2ccc(Cl)cc2)CN(C)[C@]32C(=O)Nc3ccccc32)cc1` (stereo partly specified), the concentration for half-maximal inhibition (IC50) was determined as 81.7 µM in assay [1] (setting [9]); 87.7 µM in assay [2]; 8.6 µM in assay [3]; 8.57 µM in assay [4]; 9.1 µM in assay [5]; 103 µM in assay [6].
For `CCc1ccc(C2CN(C)[C@]3(C(=O)Nc4ccccc43)[C@]23NC(=S)N(c2ccc(F)c(Cl)c2)C3=O)cc1` (stereo partly specified), the IC50 in assay [1] (setting [9]) came out at 42.5 µM; in assay [2], 19 µM; in assay [3], 8.6 µM; in assay [4] it was 8.45 µM; in assay [5] it was 12.5 µM; in assay [6] it was 33.9 µM.
In the case of `CCOc1ccc(N2C(=O)[C@@]3(NC2=S)C(c2ccc(Cl)cc2)CN(C)[C@]32C(=O)Nc3ccc(Br)cc32)cc1` (stereo partly specified), the IC50 entry in assay [1] (siha) is “Not Active”; in assay [2], 34.9 µM; in assay [3] it was not below 50 µM; in assay [4] it was 16.3 µM; in assay [5] it was 28.6 µM; in assay [6] it was 42.1 µM.
Consider `CN1CC(c2ccc(Cl)cc2)[C@@]2(NC(=S)N(c3ccc(F)c(Cl)c3)C2=O)[C@@]12C(=O)Nc1ccc(Br)cc12` (stereo partly specified), for which the IC50 in assay [1] (setting [9]) was found to be 12.1 µM; in assay [2], 6.84 µM; in assay [3], 9.9 µM; in assay [4] it was 8.65 µM; in assay [5], 10.3 µM; in assay [6], 11.1 µM.
Turning to `CCc1ccc(C2CN(C)[C@]3(C(=O)Nc4ccc(Br)cc43)[C@]23NC(=S)N(c2ccc(F)c(Cl)c2)C3=O)cc1` (stereo partly specified), the IC50 in assay [1] (setting [9]) worked out at 79.1 µM; in assay [2], 15.5 µM; in assay [3], 11.6 µM; in assay [4], 33.5 µM; in assay [5] it was 15.6 µM; in assay [6] it was 23 µM.
As for `CCOc1cc(C(C)(C)C)ccc1C1=N[C@@](C)(c2ccc(Cl)cc2)[C@@](C)(c2ccc(Cl)cc2)N1C(=O)N1CCN(CCS(C)(=O)=O)CC1`, the CC50 in assay [7] stood at 0.94 µM.
Compound `CC(C)CC(N/C(C(=O)NCc1ccccc1)=C1\C(C(=O)NO)=Nc2cc(Cl)ccc21)C(=O)NO` (stereo unspecified) came in with a Ki in assay [8] of 0.9 µM.
As for `COc1ccc(C2=N[C@@H](c3ccc(Cl)cc3)[C@@H](c3ccc(Cl)cc3)N2C(=O)N2CCNC(=O)C2)c(OC(C)C)c1` [NUTLIN-3], the IC50 in assay [6] came to 5.1 µM.
